Some test systems named below: A498 renal; HS 578T breast; SR leukemia; K-562 leukemia; SF-268 CNS; HOP-62 NSCLC; NCI-H226 lung; MCF7 breast; SK-OV-3 ovarian; MDA-MB-435; MOLT-4 leukemia; UACC-62 melanoma; OVCAR-8 ovarian; SNB-75 CNS; COLO 205 colon; SK-MEL-5 melanoma; PC-3 prostate.
Assay in all cases: NCI tumour cell line growth inhibition, 48 h

Here are results for 15 compounds from PubChem BioAssay (NCI).

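Briefly, cells in 96-well plates were exposed to five compound concentrations for 48 h, and endpoints were estimated by linear interpolation. TGI is the concentration that stops growth completely.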

Take `O=C(Sc1c(-c2ccccc2)c(=O)n(-c2ccccc2)c(=S)n1-c1ccccc1)c1ccc(Cl)cc1`: the TGI in the experiment with A498 renal, in the experiment on HS 578T breast, in the experiment on SR leukemia, in the experiment with K-562 leukemia, with SF-268 CNS and with HOP-62 NSCLC was over 100 µM each time. For the same compound, the TGI in the experiment on NCI-H226 lung, in the experiment on MCF7 breast, with SK-OV-3 ovarian, with MDA-MB-435, in the experiment on MOLT-4 leukemia and in the experiment with UACC-62 melanoma was over 100 µM throughout. Moreover, the TGI in the experiment with OVCAR-8 ovarian, with SNB-75 CNS and with COLO 205 colon was over 100 µM throughout.
`CS(=O)(=O)c1nc(N)nc2nc[nH]c12`: the TGI in the experiment on A498 renal, in the experiment with SR leukemia, in the experiment with K-562 leukemia, in the experiment with SF-268 CNS, with HOP-62 NSCLC and with NCI-H226 lung was over 100 µM throughout. Further, the TGI in the experiment with SK-OV-3 ovarian, in the experiment on SK-MEL-5 melanoma, in the experiment on MOLT-4 leukemia, in the experiment on UACC-62 melanoma, with OVCAR-8 ovarian and with COLO 205 colon was over 100 µM throughout.
For the compound `COC(=O)c1cc(Br)c(C(=O)C(Cl)(Cl)Cl)[nH]1`, the TGI in the experiment on A498 renal, in the experiment with PC-3 prostate, with K-562 leukemia, in the experiment with SF-268 CNS, in the experiment with HOP-62 NSCLC and with NCI-H226 lung was over 100 µM each time. Further, the TGI in the experiment with SK-OV-3 ovarian, in the experiment on SK-MEL-5 melanoma, with MDA-MB-435, in the experiment on MOLT-4 leukemia, in the experiment on UACC-62 melanoma and with OVCAR-8 ovarian was over 100 µM in each case. Also, the TGI in the experiment with SNB-75 CNS and with COLO 205 colon was over 100 µM each time.
On to `COC(=O)[C@@H]1O[C@]12C(CO[Si](C)(C)C(C)(C)C)OC(n1ccc(=O)[nH]c1=O)C2O[Si](C)(C)C(C)(C)C` (some centres not stated), for which the TGI with PC-3 prostate is 68.1 µM; in the experiment on K-562 leukemia it was over 100 µM; with SF-268 CNS it was over 100 µM; in the experiment on HOP-62 NSCLC it was 48 µM; in the experiment with NCI-H226 lung it was 30.7 µM; with MCF7 breast, 37.2 µM. Further, the TGI is over 100 µM with SK-OV-3 ovarian; 51.6 µM with SK-MEL-5 melanoma; 58.7 µM in the experiment on MDA-MB-435; 76.5 µM in the experiment on MOLT-4 leukemia; 72.7 µM in the experiment with UACC-62 melanoma; over 100 µM in the experiment on OVCAR-8 ovarian. In addition, the TGI with SNB-75 CNS is over 100 µM; with COLO 205 colon, 69.7 µM.
For `Cc1c(O)c(OC2OC(CO)C(O)C(O)C2O)cc2c1CC[C@@H]1C2(C)C(=O)C[C@]2(C)[C@@H]([C@@](C)(O)C(O)/C=C/C(C)(C)O)[C@H](O)C[C@@]12C` (some centres not stated), the TGI in the experiment with A498 renal, in the experiment with PC-3 prostate, in the experiment on SR leukemia, in the experiment on K-562 leukemia, with SF-268 CNS and in the experiment on HOP-62 NSCLC was over 100 µM in each case. In addition, the TGI with NCI-H226 lung, in the experiment with MCF7 breast, in the experiment with SK-OV-3 ovarian, in the experiment on SK-MEL-5 melanoma, in the experiment with MDA-MB-435 and in the experiment with MOLT-4 leukemia was over 100 µM each time. Besides, the TGI with UACC-62 melanoma, with OVCAR-8 ovarian, with SNB-75 CNS and in the experiment with COLO 205 colon was over 100 µM in each case.
As to `COC(=O)c1cc(C)ccc1/C=C1\Cc2cc(C)c(C)cc2C1=O`, the TGI in the experiment with A498 renal, in the experiment with PC-3 prostate, in the experiment with HS 578T breast, with SR leukemia, in the experiment on K-562 leukemia and with SF-268 CNS was over 100 µM throughout. In addition, the TGI in the experiment with HOP-62 NSCLC, in the experiment with NCI-H226 lung, in the experiment on SK-MEL-5 melanoma, in the experiment on MOLT-4 leukemia, in the experiment with UACC-62 melanoma and with OVCAR-8 ovarian was over 100 µM each time. The compound further yielded a TGI in the experiment with SNB-75 CNS of 69.5 µM.
Regarding `Cc1ccc(S(=O)(=O)Nn2c(-c3ccccc3)c(C#N)c(-c3ccc(Cl)cc3)c(C#N)c2=O)cc1`, the TGI with A498 renal was 51.1 µM; in the experiment with PC-3 prostate it was 98 µM; with K-562 leukemia, over 100 µM; in the experiment on HOP-62 NSCLC, over 100 µM; in the experiment with MCF7 breast, over 100 µM; in the experiment with SK-OV-3 ovarian it was over 100 µM. Further, the TGI was 29.3 µM in the experiment with SK-MEL-5 melanoma; over 100 µM in the experiment on MDA-MB-435; 52.8 µM in the experiment on MOLT-4 leukemia; 33 µM in the experiment on UACC-62 melanoma; 65.3 µM in the experiment on COLO 205 colon.
`CC(C)[Si](OC12CCC(CC1O)CC2C(=O)O)(C(C)C)C(C)C` (configuration not stated): the TGI in the experiment on A498 renal was 31 µM; in the experiment on PC-3 prostate it was 25 µM; in the experiment on SR leukemia, over 100 µM; in the experiment on K-562 leukemia it was over 100 µM; in the experiment with SF-268 CNS it was 27.9 µM; in the experiment with HOP-62 NSCLC, 27.5 µM. The TGI in the experiment on NCI-H226 lung is 31.6 µM; in the experiment on MCF7 breast it was 31.7 µM; in the experiment on SK-OV-3 ovarian, 27.2 µM; with SK-MEL-5 melanoma it was 51.6 µM; in the experiment with MDA-MB-435, 31.8 µM; in the experiment with MOLT-4 leukemia, over 100 µM. Moreover, the TGI in the experiment on UACC-62 melanoma is 27.6 µM; with OVCAR-8 ovarian, 42.4 µM; in the experiment with SNB-75 CNS it was 28.1 µM; in the experiment on COLO 205 colon, 59.2 µM.
On to `CN1C(=O)n2c(nc3ccccc32)C(N=[N+]=[N-])(N=[N+]=[N-])C1=O` (configuration not stated), for which the TGI in the experiment with A498 renal, in the experiment on K-562 leukemia, with SF-268 CNS, with HOP-62 NSCLC, with NCI-H226 lung and in the experiment on SK-OV-3 ovarian was over 100 µM in each case. Further, the TGI in the experiment on SK-MEL-5 melanoma, with MOLT-4 leukemia, in the experiment with UACC-62 melanoma, in the experiment with OVCAR-8 ovarian, in the experiment with SNB-75 CNS and in the experiment on COLO 205 colon was over 100 µM in each case.
Regarding `CC(C#N)c1cn(S(=O)(=O)c2ccccc2)c2ccccc12` (configuration not stated), the TGI was over 100 µM with SR leukemia; over 100 µM in the experiment on K-562 leukemia; over 100 µM in the experiment on SF-268 CNS; over 100 µM with HOP-62 NSCLC; over 100 µM in the experiment with NCI-H226 lung; 36.9 µM with SK-MEL-5 melanoma. The TGI with MOLT-4 leukemia was over 100 µM; in the experiment with UACC-62 melanoma, over 100 µM; with OVCAR-8 ovarian it was over 100 µM; in the experiment with SNB-75 CNS, 38.2 µM; in the experiment on COLO 205 colon it was over 100 µM.
On to `CCSC(=Nc1ccccc1)SC`, for which the TGI with K-562 leukemia, in the experiment with SF-268 CNS, in the experiment with HOP-62 NSCLC, in the experiment on NCI-H226 lung, with SK-OV-3 ovarian and in the experiment with SK-MEL-5 melanoma was over 100 µM throughout. Besides, the TGI with MOLT-4 leukemia, with UACC-62 melanoma, in the experiment with OVCAR-8 ovarian, with SNB-75 CNS and in the experiment on COLO 205 colon was over 100 µM in each case.
Take `CCOC(=O)C1C(=O)CC(C)(O)C(C(=O)OCC)C1c1ccc(N(C)C)cc1` (configuration not stated): the TGI in the experiment with A498 renal, with PC-3 prostate, with SR leukemia, in the experiment with K-562 leukemia, with SF-268 CNS and in the experiment on HOP-62 NSCLC was over 100 µM each time. For the same compound, the TGI in the experiment on NCI-H226 lung, in the experiment with MCF7 breast, in the experiment with SK-MEL-5 melanoma, in the experiment on MDA-MB-435, in the experiment on MOLT-4 leukemia and with UACC-62 melanoma was over 100 µM throughout. Further, the TGI in the experiment on OVCAR-8 ovarian, with SNB-75 CNS and in the experiment on COLO 205 colon was over 100 µM throughout.
`COc1ccccc1C1C2=C(COC2=O)OC(C)(C)Oc2cc3c(cc21)OCO3` (configuration not stated): the TGI in the experiment on A498 renal is 24.7 µM; in the experiment on PC-3 prostate, over 29.7 µM; with HS 578T breast, over 100 µM; in the experiment on SR leukemia it was over 100 µM; in the experiment on K-562 leukemia it was 12.8 µM; in the experiment on SF-268 CNS, 98.1 µM. In addition, the TGI is over 65.4 µM in the experiment on HOP-62 NSCLC; over 24.8 µM in the experiment with NCI-H226 lung; over 31 µM with MCF7 breast; over 100 µM with SK-OV-3 ovarian; 21 µM in the experiment on SK-MEL-5 melanoma; over 100 µM with MOLT-4 leukemia. Moreover, the TGI with UACC-62 melanoma was over 25.4 µM; in the experiment with OVCAR-8 ovarian, over 100 µM; in the experiment with SNB-75 CNS it was 8.42 µM; in the experiment with COLO 205 colon, 7.5 µM.
As to `NC(=O)/N=C(\N)NC(=O)c1ccccc1`, the TGI with A498 renal, in the experiment with PC-3 prostate, with SR leukemia, in the experiment with K-562 leukemia, with HOP-62 NSCLC and in the experiment on NCI-H226 lung was over 100 µM each time. Besides, the TGI in the experiment on SK-MEL-5 melanoma, in the experiment on MDA-MB-435, in the experiment on MOLT-4 leukemia, in the experiment on UACC-62 melanoma and in the experiment on OVCAR-8 ovarian was over 100 µM each time.
For `CCOC(=O)c1sc2nc(SC)nc(Nc3ccc4c(c3)OCCCO4)c2c1N`, the TGI in the experiment on A498 renal was over 100 µM; in the experiment with PC-3 prostate, over 100 µM; with SR leukemia it was over 100 µM; in the experiment on K-562 leukemia, over 100 µM; in the experiment with SF-268 CNS, over 100 µM; in the experiment on HOP-62 NSCLC it was 61.5 µM. The TGI is over 100 µM in the experiment on NCI-H226 lung; over 100 µM in the experiment with MCF7 breast; over 100 µM with SK-OV-3 ovarian; 18.7 µM in the experiment on SK-MEL-5 melanoma; over 100 µM in the experiment on MDA-MB-435; 8.25 µM in the experiment on MOLT-4 leukemia. The TGI in the experiment with UACC-62 melanoma, in the experiment on OVCAR-8 ovarian and with COLO 205 colon was over 100 µM each time.
